{
  "source": "patent US12629410B2",
  "about": "“Multi-antigenic peptide mimics of gonococcal lipo-oligosaccharide (LOS) epitopes” (priority 2019, dated 2026)",
  "key": {"mAb 2C7": {"tested_on": "mAb 2C7", "experiment": "Inhibition ELISA: inhibition of mAb 2C7 binding to immobilized gonococcal LOS", "conditions": "for comparative ability to inhibit mAb 2C7 binding to LOS (antigenicity): ranking within the set of peptides tested", "text": "FIGS. 1A-1B show the structure and characterization of one of the peptide mimics described herein (also referred to as TMCP2). […] The 2C7 mimitope is indicated in shown as the sequence “H2C-CO-GPIPVLDENGLFAPGPC” (SEQ ID NO: 1) Cyclization is maintained through a thioether bond. The reverse peptide mimic core is represented the schematic of the peptide mimic as “Ac-β-Ala-Glu[Glu-OH]2.” The reverse peptide mimic core links to each cyclic peptide through a lysine (K) residue.\nIn order to compare antigenicity of peptide mimic Core Peptide 2 (monomeric cyclic CP2) and composite TMCP2 compounds with LOS that expresses the 2C7 epitope, inhibition ELISA was performed using mAb 2C7 reacted with the individual compounds to assess inhibition of binding (residual binding) of mAb to LOS by each compound. Microtiter wells were coated with LOS (80 μg/ml in PBS) purified from strain FA1090. Wells were washed and blocked with PBS-0.05% Tween 20. mAb 2C7 (0.04 μg/ml) either alone or containing monomeric cyclic peptide CP2 (1.07 to 1070 μM) or composite TMCP2 (concentrations ranging from […]) was dispended into LOS coated wells. Residual binding of 2C7 mAb was measured with anti-mouse IgG conjugated to alkaline phosphatase. Bound IgG was quantitated using a mouse IgG standard curve and percent inhibition determined compared to reaction mixtures that […].\nAttempts to measure mAb 2C7 (7) binding directly to immobilized peptide mimic Core Peptide 2 (abbreviated CP2 in FIG. 1A) and composite TMCP2 by ELISA were not successful. The possibility of poor capture of the peptides by the microtiter wells was considered and therefore used an ELISA to measure inhibition of binding (residual binding) of mAb 2C7 to immobilized gonococcal LOS that had been reacted with increasing concentrations of the peptides (FIG. 1B)."}, "[1]": {"tested_on": "LOS purified from N. gonorrhoeae strain 15253", "type": "in vivo"}, "[2]": {"conditions": "earlier peptide constructs, FIG. 18 and FIG. 19"}},
  "note": "Entries after “also recorded” stand apart in the source; their conditions may differ. Like-named read-outs stand apart in the source and are kept apart here. Bridges are numbered along the chain shown (N, C = ends). Primed or numbered codes have the meaning given here. Where no end group is shown, it is not given here. [ ]: non-standard residue; d: D form. PEG2′ = two-unit polyethylene glycol spacer; PEG2″ = not defined here",
  "data": [
    {"substance": "KIPVLDENGLFAP (SEQ ID NO: 3)-PEG2-KK (KIPVLDENGLFAP[PEG2′]KK) [Mod3]", "values": [
      {"measurement": "comparative ability to inhibit mAb 2C7 binding to LOS (antigenicity)", "setting": "mAb 2C7; listed as Mod 3", "result": "most antigenic"}
    ]},
    {"substance": "(KIPVLDENGLFAP-PEG2-KKC)4-Maleimide4-MAP4 (KIPVLDENGLFAP[PEG2″]KKC; also: four copies on a maleimide MAP4 core) [TetraMAP 3.2]", "values": [
      {"measurement": "immunogenicity in BALB/c mice (IgG against 2C7+ LOS by ELISA)", "setting": "[1]; [2]", "result": "poorly immunogenic"}
    ]},
    {"substance": "KIPVLDENGLFAPGPC-D Lys-D Lys4-K2-K-MAP4 (not fully specified (C-terminus); also: four copies on a branched Lys (K2-K) MAP4 core) [TetraMAP 3.4]", "values": [
      {"measurement": "immunogenicity in BALB/c mice (IgG against 2C7+ LOS by ELISA)", "setting": "[1]; [2]", "result": "poorly immunogenic"}
    ]},
    {"substance": "[Ac-(CGPIPVLDENGLFAPGPC)-K-OH]4 (Ac-CGPIPVLDENGLFAPGPCK-OH; disulfide 1-18; also: tetrameric reverse MAP core) [TMCP3, disulfide-cyclized peptides on reverse MAP core]", "values": [
      {"measurement": "anti-LOS titers in immunization experiments", "setting": "[1]; tetrapeptides 50 μg/dose plus Sigma MPL adjuvant, BALB/c, FIG. 10", "result": "higher anti-LOS titers than TMCP4"},
      {"measurement": "comparative ability to inhibit mAb 2C7 binding to LOS (antigenicity)", "setting": "mAb 2C7", "result": "bound best"}
    ]},
    {"substance": "KIPVLDENGLFAP-D Lys-D Lys4-K2-K-MAP4 (not fully specified (C-terminus); also: four copies on a branched Lys (K2-K) MAP4 core) [TetraMAP 3.3]", "values": [
      {"measurement": "immunogenicity in BALB/c mice (IgG against 2C7+ LOS by ELISA)", "setting": "[1]; [2]", "result": "poorly immunogenic"}
    ]},
    {"substance": "(CH2-CO-GPIPVLDENGLFAPGPC)-K-OH ({CH2CO}-GPIPVLDENGLFAPGPCK-OH; thioether N-17; SMILES CC[C@H](C)[C@@H]1NC(=O)[C@@H]2CCCN2C(=O)CNC(=O)CSC[C@@H](C(=O)N[C@@H](CCCCN)C(=O)O)NC(=O)[C@@H]2CCCN2C(=O)CNC(=O)[C@@H]2CCCN2C(=O)[C@H](C)NC(=O)[C@H](Cc2ccccc2)NC(=O)[C@H](CC(C)C)NC(=O)CNC(=O)[C@H](CC(N)=O)NC(=O)[C@H](CCC(=O)O)NC(=O)[C@H](CC(=O)O)NC(=O)[C@H](CC(C)C)NC(=O)[C@H](C(C)C)NC(=O)[C@@H]2CCCN2C1=O) [CP2]", "values": [
      {"measurement": "IC50", "setting": "mAb 2C7; mAb 2C7 0.04 μg/ml, LOS-coated wells, read-out: concentration giving 50% inhibition of mAb 2C7 binding to immobilized 15253 LOS", "result": 107, "unit": "µM"}
    ]},
    {"substance": "KIPVLDENGLFAPAAAGGKIPVLDENGLFAP [Mod3 linear dimer #2]", "values": [
      {"measurement": "immunogenicity in BALB/c mice (IgG against 2C7+ LOS by ELISA)", "setting": "[1]; earlier peptide constructs, FIG. 18 and FIG. 19, listed as 16", "result": "non-immunogenic"},
      {"measurement": "immunogenicity in BALB/c mice (IgG against 2C7+ LOS by ELISA)", "setting": "[1]; earlier peptide constructs, FIG. 18 and FIG. 19, listed as Mod3 linear dimer with AAAGG (SEQ ID NO: 5) linker", "result": "neither were immunogenic"},
      {"measurement": "comparative ability to inhibit mAb 2C7 binding to LOS (antigenicity)", "setting": "mAb 2C7; listed as Mod3 linear dimer with AAAGG (SEQ ID NO: 5) linker", "result": "better than the molecule with the AG linker"}
    ]},
    {"substance": "(KIPVLDENGLFAP-PEG2-KK)4-MAP4 [Tetra MAP 3.1]", "values": [
      {"measurement": "immunogenicity in BALB/c mice (IgG against 2C7+ LOS by ELISA)", "setting": "[1]; in vivo", "result": "poorly immunogenic"}
    ]},
    {"substance": "KIPVLDENGLFAPGSKIPVLDENGLFAP [Mod3 linear dimer #1]", "values": [
      {"measurement": "immunogenicity in BALB/c mice (IgG against 2C7+ LOS by ELISA)", "setting": "[1]; earlier peptide constructs, FIG. 18 and FIG. 19, listed as 15", "result": "non-immunogenic"},
      {"measurement": "immunogenicity in BALB/c mice (IgG against 2C7+ LOS by ELISA)", "setting": "[1]; earlier peptide constructs, FIG. 18 and FIG. 19, listed as Mod3 linear dimer with GS linker", "result": "neither were immunogenic"}
    ]},
    {"substance": "(CGPIPVLDENGLFAPGPC)4(Lys)2Lys-β-Ala-COOH [Tetra MAP 1.1]", "values": [
      {"measurement": "immunogenicity in BALB/c mice (IgG against 2C7+ LOS by ELISA)", "setting": "[1]; in vivo", "result": "Neither compound was superior; also recorded: elicited similar anti-LOS Ab levels as Tetra"}
    ]},
    {"substance": "SGPIPVLDENGLFAPGPC)4(Lys)2Lys-β-Ala-COOH [Tetra MAP 1.2]", "values": [
      {"measurement": "immunogenicity in BALB/c mice (IgG against 2C7+ LOS by ELISA)", "setting": "[1]; in vivo", "result": "Neither compound was superior"}
    ]}
  ]
}
